Patent US5362751A, “Tracheobronchodilator using 16-substituted PGEs” (priority 1988, dated 1994)
Read-outs that look alike come from different tables or passages of the source.

Columns and labels:
tracheal smooth muscle = assay: Tracheaectasy: inhibition of histamin-induced contraction of circular slices of guinea pig trachea in Magnus tube; details: contraction by 5.4×10^-4 M histamin, cumulative administration; for IC20: read-out: IC20 (concentration exhibiting the inhibition rate of 20%); for IC50: read-out: IC50 (concentration exhibiting the inhibition rate of 50%)
Description: A male guinea pig weighing about 300 g was beaten to death, and immediately drew the blood by cutting its arteriae femoral as pouring water. A trachea was picked out and cut lengthwise at the opposite side of tracheal smooth muscle and cut into circular slices between cartilages. The obtained seven circular slices of the trachea were tied like as a chain with a thread, and hung into Magnus tube.
After the circular slices of trachea were held for 60-90 minutes until it became stable (disappearence of convulsion), they were administered with 5.4×10^-4 M of histamin to be contracted. After the contraction reached to maximum, each test drug was cumulatively administered so as to inhibit the contraction caused by the histamin.

trachea of humans = assay: Stimuli of trachea by spraying inhalation in humans; format: in vivo, human; details: 10 μg/ml solution sprayed at 2 ml/min, ultrasonic inhaler
Description: The strength of stimuli to trachea of humans was evaluated by actual spraying inhalation.
Each test drug was dissolved with a small amount of ethyl alcohol, to which distilled water was added to prepare a solution containing test drug at a concentration of 10 μg/ml. Four panels (K, D, T and O) were sprayed into their throats with the each test solution at a rate of 2 ml/min using an ultrasonic inhaler (NE-U10B available from Omlon K.K.), and the strength of the stimuli was observed.

airway resistance = assay: Inhibition of increase of airway resistance due to histamin in anesthetized guinea pig; format: in vivo; details: intravenous, histamin 3 μg/kg one minute later
Description: A male guinea pig weighing 300-400 g was intraperitoneally anesthetized with urethane 1.5 g/kg. The test animal was cannulated through the trachea, and then bromopanchlonium was intravenously administered at 0.3 mg/kg to make the test animal inactivate. The animal was respired using a vespirater for a small animal. The airway resistance was recorded on a recorder using a bronchospasin transducer. The administration of the test drug was made through a cannula into the jugular vein. The histamin was administered three times of each 3 μg/kg at 30 minutes intervals, and the increase of the airway resistance was determined. After the determination the test drug was intervenously administered, and then 4th administration of histamin was done after one minute. The increase of airway resistance due to histamin before and after the administration of the test drug was determined, from which inhibition rate of the increase due to the test drug was evaluated.

SMILES | IC50 (tracheal smooth muscle; Cavia porcellus) [nM] | IC20 (tracheal smooth muscle; Cavia porcellus) [nM] | other results
CCCCC(C)C(=O)CCC1C(O)CC(=O)C1CC(=O)CCCCC(=O)OC (stereo not shown) [compound 9] |  |  | IC20 (tracheal smooth muscle): 100 nM; IC50 (tracheal smooth muscle): 400 nM
CCCCC(C)C(=O)CC[C@H]1[C@H](O)CC(=O)[C@@H]1CC(=O)CCCCC(=O)OC (stereo partly shown) [Test drug 9, 13,14-dihydro-6,15-diketo-16R,S-methyl-PGE1 methyl ester] |  |  | strength of stimuli to trachea, panel D (trachea of humans; panel D): -; strength of stimuli to trachea, panel K (trachea of humans; panel K): -; strength of stimuli to trachea, panel O (trachea of humans; panel O): -; strength of stimuli to trachea, panel T (trachea of humans; panel T): -
COCCCCCC(=O)CC[C@H]1[C@H](O)CC(=O)[C@@H]1CC#CCCCC(=O)OC [compound 46] |  | 10000 | 
CCCCC(C)C(=O)CC[C@H]1[C@H](O)CC(=O)[C@@H]1C/C=C\CC(C)CC(=O)OC (stereo partly shown) [compound 29] |  |  | IC20 (tracheal smooth muscle): 600 nM; IC50 (tracheal smooth muscle): 7000 nM
CCCCC(C)C(=O)CC[C@H]1[C@H](O)CC(=O)[C@@H]1C/C=C\CCCC(=O)OC (stereo partly shown) [compound 27] |  |  | IC20 (tracheal smooth muscle): 80 nM; IC50 (tracheal smooth muscle): 400 nM
COCCCCCC(=O)CC[C@H]1[C@H](O)CC(=O)[C@@H]1C/C=C\CC(C)CC(=O)OC (stereo partly shown) [compound 44] |  | 10000 | 
CCCCCCC(=O)CC[C@H]1[C@H](O)CC(=O)[C@@H]1CC(=O)CCCCC(=O)OCC [compound 15] |  |  | IC20 (tracheal smooth muscle): 500 nM; IC50 (tracheal smooth muscle): 4000 nM
CCCCCCCC(=O)CC[C@H]1[C@H](C)CC(=O)[C@@H]1C/C=C\CCCC(=O)OC [compound 52] |  | 1000 | 
CCCCC[C@H](O)/C=C/[C@H]1[C@H](O)CC(=O)[C@@H]1C/C=C\CCCC(=O)O [Test drug 57, (z)-7-{(1R,2R,3R)-3-hydroxy-2-[(E)-(3S)-3-hydroxy-1-octenyl]-5-oxo-cyclopentyl}-hept-5-enoic acid, reference compound] |  |  | inhibition rate of increase of airway resistance (airway resistance; dose 3 μg/kg): 92%
CCCCCCCCC(=O)CC[C@H]1[C@H](O)CC(=O)[C@@H]1C/C=C\CCCC(=O)OC [compound 53] |  | 10000 | 
CCCCC(C)C(=O)CCC1C(O)CC(=O)C1CC(=O)CCCCC(=O)OCC (stereo not shown) [compound 10] |  |  | IC20 (tracheal smooth muscle): 100 nM; IC50 (tracheal smooth muscle): 600 nM
CCCCCC(=O)CCC1C(O)CC(=O)C1CC=CCC(C)CC(=O)OCC (stereo not shown) [compound 26] |  |  | IC20 (tracheal smooth muscle): 1000 nM; IC50 (tracheal smooth muscle): 7000 nM
CCOC(=O)CCCCC(=O)CC1C(=O)CC(O)C1CCC(=O)CCCC(C)C (stereo not shown) [compound 14] |  |  | IC20 (tracheal smooth muscle): 900 nM; IC50 (tracheal smooth muscle): 30000 nM
COC(=O)CCCCC(=O)CC1C(=O)CC(O)C1CCC(=O)CCCC(C)C (stereo not shown) [compound 13] |  |  | IC20 (tracheal smooth muscle): 1000 nM; IC50 (tracheal smooth muscle): 30000 nM
CC(C)=CCCCCC(=O)CC[C@H]1[C@H](O)CC(=O)[C@@H]1C/C=C\CCCC(=O)O [compound 48] |  | 10000 | 
CCCCC(F)C(=O)CC[C@H]1[C@H](O)CC(=O)[C@@H]1CCCCCCC(=O)O (stereo partly shown) [compound 62] |  | 4000 | 
CCOC(=O)CCC/C=C\C[C@H]1C(=O)C[C@@H](O)[C@@H]1CCC(=O)CCCC(C)C [compound 41] |  | 4000 | 
CCCCC(C)(C)C(=O)CCC1C(O)CC(=O)C1CC=CCCCC(=O)OCC (stereo not shown) [compound 31] |  |  | IC20 (tracheal smooth muscle): 400 nM; IC50 (tracheal smooth muscle): 2000 nM
CCCCCC(=O)CC[C@H]1[C@H](O)CC(=O)[C@@H]1C/C=C\CC(C)CC(=O)OC (stereo partly shown) [compound 25] |  |  | IC20 (tracheal smooth muscle): 40000 nM
COCCCCCC(=O)CC[C@H]1[C@H](O)CC(=O)[C@@H]1C/C=C\CCCC(=O)OC [compound 42] |  | 10000 | 
CCCCCCCC(=O)CC[C@H]1[C@H](O)CC(=O)[C@@H]1C/C=C\CCCC(=O)OC [compound 50] |  | 20000 | 
CCCCC(C)C(=O)CCC1C(O)CC(=O)C1CC=CCCCC(=O)OCC (stereo not shown) [compound 28] |  |  | IC20 (tracheal smooth muscle): 700 nM; IC50 (tracheal smooth muscle): 7000 nM
COC(=O)CCC/C=C\C[C@H]1C(=O)C[C@@H](O)[C@@H]1CCC(=O)CCCCC=C(C)C [compound 49] |  | 7000 | 
CCOC(=O)CCCCC(=O)C[C@H]1C(=O)C[C@@H](O)[C@@H]1CCC(=O)CCC(C)CC (stereo partly shown) [compound 63] |  | 10000 | 
CCCCC(C)(C)C(=O)CC[C@H]1[C@H](O)CC(=O)[C@@H]1C/C=C\CCCC(=O)OC [compound 30] |  |  | IC20 (tracheal smooth muscle): 600 nM; IC50 (tracheal smooth muscle): 2000 nM
CCCCC(F)(F)C(=O)CC[C@H]1[C@H](O)CC(=O)[C@@H]1C/C=C\CCCC(=O)O [13,14-dihydro-15-keto-16,16-difluoro-PGE2] |  |  | inhibition rate of increase of airway resistance (airway resistance; dose 1 μg/kg): 42%; inhibition rate of increase of airway resistance (airway resistance; dose 3 μg/kg): 100%
CCCCC(C)(C)C(=O)CC[C@H]1[C@H](O)CC(=O)[C@@H]1CC(=O)CCCCC(=O)OCC [compound 11] |  |  | IC20 (tracheal smooth muscle): 800 nM; IC50 (tracheal smooth muscle): 4000 nM

Continued, in another order:

IC50 (tracheal smooth muscle; Cavia porcellus) [nM] | SMILES | IC20 (tracheal smooth muscle; Cavia porcellus) [nM] | other results
20000 | CCCCC(F)C(=O)CC[C@H]1[C@H](O)CC(=O)[C@@H]1C/C=C\CCCC(=O)OCC (stereo partly shown) [compound 35] | 900 | 
100 | CCCCC[C@H](O)/C=C/[C@H]1[C@H](O)CC(=O)[C@@H]1C/C=C\CCCC(=O)O [compound 57] | 10 | 
1000 | CCCCC(C)C(=O)CC[C@H]1[C@H](O)CC(=O)[C@@H]1CCCCCCC(=O)OC (stereo partly shown) [compound 64] | 300 | 
2500 | CCC[C@H](C)CC(=O)/C=C/[C@H]1[C@H](O)CC(=O)[C@@H]1C/C=C\CCCC(=O)OCC [compound 61] | 700 | 
60000 | CCC[C@H](C)CC(=O)CC[C@H]1[C@H](O)CC(=O)[C@@H]1C/C=C\CCCC(=O)OC [compound 39] | 3000 | 
10000 | CCCCC(F)C(=O)/C=C/[C@H]1[C@H](O)CC(=O)[C@@H]1C/C=C\CCCC(=O)OC (stereo partly shown) [compound 55] | 2000 | 
30000 | CCCCCC(=O)/C=C/[C@H]1[C@H](O)CC(=O)[C@@H]1C/C=C\CCCC(=O)O [compound 54] | 8000 | 
10000 | CCCCCCCC(=O)CC[C@H]1[C@H](O)CC(=O)[C@@H]1C/C=C\CCCC(=O)OCC [compound 51] | 1000 | 
4000 | CCCCCCC(=O)CC[C@H]1[C@H](O)CC(=O)[C@@H]1CCCCCCC(=O)O [compound 59] | 1000 | 
5000 | CCCCCC(F)C(=O)CC[C@H]1[C@H](O)CC(=O)[C@@H]1C/C=C\CCCC(=O)OC (stereo partly shown) [compound 36] | 500 | 
30000 | CCC[C@H](C)CC(=O)CC[C@H]1[C@H](O)CC(=O)[C@@H]1C/C=C\CCCC(=O)OCC [compound 58] | 1000 | 
10000 | COCCCCC(C)(C)C(=O)CC[C@H]1[C@H](O)CC(=O)[C@@H]1C/C=C\CCCC(=O)OC [compound 45] | 2000 | 
80 | CCCCC[C@H](O)/C=C/[C@H]1[C@H](O)CC(=O)[C@@H]1CCCCCCC(=O)O [compound 56] | 2 | 
7000 | CCCCC(F)C(=O)/C=C/[C@H]1[C@H](O)CC(=O)[C@@H]1C/C=C\CCCC(=O)O (stereo partly shown) [compound 60] | 3000 | 
8000 | CCCCC(F)C(=O)CC[C@H]1[C@H](CC)CC(=O)[C@@H]1C/C=C\CCCC(=O)OCC (stereo partly shown) [compound 37] | 400 | 
40000 | COC(=O)CCC/C=C\C[C@H]1C(=O)C[C@@H](O)[C@@H]1CCC(=O)CCCC(C)C [compound 40] | 2000 | 
7000 | CCCCCC(=O)CC[C@H]1[C@H](C)CC(=O)[C@@H]1C/C=C\CCCC(=O)OCC [compound 38] | 600 | 
3000 | COCCCC(=O)CC[C@H]1[C@H](O)CC(=O)[C@@H]1C/C=C\CCCC(=O)OC [compound 47] | 600 | 
